Experimental data from patent US20190015385A1, “VITAMIN E PHOSPHATE OR ACETATE FOR USE IN THE TREATMENT AND PREVENTION OF BIOFILM INFECTIONS” (priority 2016, published 2019).

Assays:
P. acnes = assay: MIC and MBC, broth microdilution (Example 3); assay type: cell-based
Experimental: MIC, defined as the lowest concentration capable of inhibiting bacterial growth, was determined using the broth microdilution method according to EUCAST guidelines (http://www.eucast.org/clinical_breakpoints/). In short, a suspension in Brain Heart Infusion Broth ([…], France) was prepared for each bacterial strain, with an optical density of 0.5 McFarland (1.5×10^8 CFU/ml). The P. acnes broth was supplemented with 5% defibrinated sheep blood ([…] Abruzzi, Italy). After a concentration of 10^5 UFC/ml was obtained using appropriate dilutions, each suspension was inoculated in a 96-well microtitre plate containing a two-fold serial dilution of vitamin E acetate (VitE-Ac) and vitamin E phosphate. The controls were performed by inoculating bacterial suspensions in BHI alone. […] After incubation at adequate conditions, MBC was read as the lowest concentration capable of killing 99.9% of the initial inoculum.

S. epidermidis = assay: Anti-adhesion activity on coated titanium disks, CFU count (Example 3); assay type: cell-based, Staphylococcus epidermidis; details: 5 mg/cm^2 coating, 30, 60 and 120 minutes
Experimental: (§1) Sterile disks of sandblasted titanium with a diameter of 25 mm and a thickness of 5 mm (Adler Ortho, Cormano, Italy) were used as the substrate for the formation of biofilms. The disks were coated with sub-inhibitory concentrations of vitamin E acetate (5 mg/cm^2) or vitamin E phosphate (5 mg/cm^2). The concentrations were selected based on the MIC results. Uncoated disks were used as negative controls. The anti-adhesion activity of vitamin E was assessed against a representative strain for each species. An overnight bacteria culture was resuspended in Brain Heart Infusion Broth (BHI; Biomérieux) at a density of 1.0×10^7 CFU/ml for each strain, and 400 microliters of microbial suspension were inoculated on coated and uncoated disks. The test was performed in triplicate for each strain. After 30, 60 and 120 minutes of incubation, the disks were washed twice with a sterile saline solution to eliminate non-adherent bacteria. The disks were then immersed in 5 ml of a 0.1 w/v % dithiothreitol solution (DTT, Sigma-Aldrich, Milan, Italy) and mechanically stirred for 15 minutes at room temperature. Suitable dilutions of the fluids obtained were inoculated on Tryptic Soy Agar (TSA, Merck) and incubated at 37° C. in an aerobic atmosphere for 24 hours for the CFU count.

[1] = system: methicillin-resistant Staphylococcus epidermidis; assay: Biofilm on coated titanium disks, CFU count (Example 2); assay type: cell-based; details: S. epidermidis, vitamin E acetate 5 mg/cm^2, methylene blue 20 μg/cm^2
From the text: (§2) This study used clinically relevant strains isolated from patients with prosthetic joint infections at the Microbiology Laboratory of the IRCCS Galeazzi Orthopaedic Institute (Italy). In particular, the following were selected: a strain of methicillin-resistant Staphylococcus epidermidis, a strain of methicillin-resistant Staphylococcus aureus and a strain of Pseudomonas aeruginosa. These strains were identified beforehand by means of biochemical assays (VITEK® 2 Compact, bioMérieux, Marcy l'Etoile, France) and stored at −80° C. prior to the analysis. Before beginning the study, all strains underwent testing to assess their ability to produce biofilms according to the spectrophotometric assay described by Christensen et al. (J Clin Microbiol 1985; 22: 996-1006).
(§3) Sterile disks of sandblasted titanium with a diameter of 25 mm and a thickness of 5 mm (Adler Ortho, Cormano, Italy) were used as the substrate for the formation of biofilms. The disks were coated with sub-inhibitory concentrations of vitamin E acetate (5 mg/cm^2) or vitamin E acetate with the addition of methylene blue (20 μg/cm^2). […] Uncoated disks were used as negative controls. Subsequently, an overnight bacteria culture was resuspended in Brain Heart Infusion Broth (BHI; Biomérieux) at a density of 1.5×10^8 CFU/ml for each strain, and 200 microliters of microbial suspension were inoculated in sterile polystyrene plates with 6 wells containing coated and uncoated disks and 4.8 ml of BHI. The plates were incubated at 37° C. in an aerobic atmosphere for 24 and 48 hours. The test was performed in triplicate for each strain.
(§4) Upon completion of the biofilm incubation time, the disks were washed twice with a sterile saline solution to eliminate non-adherent bacteria. The disks were then immersed in 5 ml of a 0.1 w/v % dithiothreitol solution (DTT, Sigma-Aldrich, Milan, Italy) and mechanically stirred for 15 minutes at room temperature. Suitable dilutions of the fluids obtained were inoculated on Tryptic Soy Agar (TSA, Merck) and incubated at 37° C. in an aerobic atmosphere for 24 hours for the CFU count.

Pseudomonas aeruginosa = assay: as above; assay type: cell-based; details: P. aeruginosa, vitamin E acetate 5 mg/cm^2, methylene blue 20 μg/cm^2
From the text: as §2, §3, §4

[2] = system: methicillin-resistant Staphylococcus aureus; assay: as above; assay type: cell-based; details: S. aureus, vitamin E acetate 5 mg/cm^2, methylene blue 20 μg/cm^2
From the text: as §2, §3, §4

S. aureus [3] = assay: Anti-adhesion activity on coated titanium disks, CFU count (Example 3); assay type: cell-based, Staphylococcus aureus; details: 5 mg/cm^2 coating, 30, 60 and 120 minutes
Experimental: as §1

S. aureus [4] = assay: MIC and MBC, broth microdilution (Example 3); assay type: cell-based, Staphylococcus aureus; details: S. aureus strains
From the text: as §2, with “institute” for “Institute”, “strains” for “a strain”, “epidermidis,” for “epidermidis, a strain”, “and” for “and a strain”, “were screened” for “underwent testing”, “biofilms,” for “biofilms”
The bacteriostatic and bactericidal activity of vitamin E acetate and vitamin E phosphate against the above-mentioned bacterial strains was assessed by measuring the minimum inhibitory concentration (MIC) and the minimum bactericidal concentration (MBC). MIC, defined as the lowest concentration capable of inhibiting bacterial growth, was determined using the broth microdilution method according to EUCAST guidelines (http://www.eucast.org/clinical_breakpoints/).
In short, a suspension in Brain Heart Infusion Broth (BHI; Biomérieux, Marci l'Etoile, France) was prepared for each bacterial strain, with an optical density of 0.5 McFarland (1.5×10^8 CFU/ml). The P. acnes broth was supplemented with 5% defibrinated sheep blood (Liofilchem, Roseto degli Abruzzi, Italy). After a concentration of 10^5 UFC/ml was obtained using appropriate dilutions, each suspension was inoculated in a 96-well microtitre plate containing a two-fold serial dilution of vitamin E acetate (VitE-Ac) and vitamin E phosphate. The controls were performed by inoculating bacterial suspensions in BHI alone. […] After incubation at adequate conditions, MBC was read as the lowest concentration capable of killing 99.9% of the initial inoculum.

[5] = kills 99.9% of the initial inoculum

CC(=O)Oc1c(C)c(C)c2c(c1C)CCC(C)(CCC[C@H](C)CCC[C@H](C)CCCC(C)C)O2 (stereo partly drawn) [Vitamin E acetate, α-tocopherol acetate]
MIC range (P. acnes; 48 hours, broth with 5% defibrinated sheep blood): >200 mg/mL | MBC range (P. acnes; [5]): >200 mg/mL | decrease in adhesion (in words) (S. epidermidis): significant decrease | biofilm reduction with respect to the controls (in words) ([1]; 24 hours): significant | biofilm reduction with respect to the controls (in words) ([1]; 48 hours): significant | biofilm reduction with respect to the controls (in words) (Pseudomonas aeruginosa; 24 hours): not after 24 hours | biofilm reduction with respect to the controls (in words) (Pseudomonas aeruginosa; 48 hours): effective after 48 hours | biofilm reduction with respect to the controls (in words) ([2]; 24 hours): significant | biofilm reduction with respect to the controls (in words) ([2]; 48 hours): significant | decrease in adhesion (in words) (S. aureus [3]): significant decrease | MIC range (S. aureus [4]; 24 hours): >200 mg/mL | MBC range (S. aureus [4]; [5]): >200 mg/mL
